Results as given in US20080146576A1, “N-(1-Phthalazin-1-ylpiperidin-4-yl)amides as EP2 receptor modulators” (priority 2006, published 2008).
Read-outs that look alike come from different tables or passages of the source.

Legend:
[1] = target: T1, human prostaglandin E2 (subtype EP2) receptor (Homo sapiens, UniProt P43116); assay: cAMP antagonism assay (HTRF cAMP, PGE2-stimulated cells); assay type: cell-based
T1 construct: host or cells: cells on a cell culture plate
Protocol: (§1) The binding of PGE2 to the EP2 subtype of the human PGE2 receptor induces activation of membrane-associated adenylate cyclases and leads to the formation of cAMP. In the presence of the phosphodiesterase inhibitor IBMX, cAMP which has accumulated due to this stimulation and been released by cell lysis is employed in a competitive detection method. In this assay, the cAMP in the lysate competes with cAMP-XL665 for binding of an Eu cryptate-labeled anti-cAMP antibody.
(§2) The two signals are measured in a suitable measuring instrument with a time lag, i.e. after the background fluorescence has declined.
(§3) The substance solutions (0.75 μl) containing 30% DMSO are introduced into an assay plate and dissolved in 16 μl of a KRSB+IBMX stimulation solution (1× Krebs-Ringer Bicarbonate Buffer; Sigma-Aldrich # K-4002; including 750 μM 3-isobutyl-1-methylxanthine Sigma-Aldrich # I-7018), and then 15 μl, thereof are transferred into a media-free cell culture plate which has been washed with KRSB shortly beforehand.
After preincubation at room temperature (RT) for 30 minutes, 5 μl of a 4×PGE2 solution (11 nM) are added, and incubation is carried out in the presence of the agonist at RT for a further 60 min (volume: ˜20 μl) before the reaction is then stopped by adding 5 μl of lysis buffer and incubated at RT for a further 20 min (volume: ˜25 μl). The cell lysate is then transferred into a measuring plate and measured in accordance with the manufacturer's information (cyclic AMP kit Cisbio International #62AMPPEC).

[2] = target: T1, human prostaglandin E2 (subtype EP2) receptor; assay: cAMP agonism assay (HTRF cAMP); assay type: cell-based
Protocol: as §1, §2
as §3, with “μl” for “μl,”
After incubation at room temperature (RT; volume: ˜15 μl) for 60 minutes, the reaction is then stopped by adding 5 μl of lysis buffer and incubated at RT for a further 20 min (volume: ˜20 μl). The cell lysate is then transferred into a measuring plate and measured in accordance with the manufacturer's information (cyclic AMP kit Cisbio International #62AMPPEC).

[3] = system: cumulus-oocyte complexes; assay: Cumulus expansion assay in vitro; assay type: cell-based, mice; settings: competing with PGE2
Protocol: Folliculogenesis is induced in immature female mice (strain: CD1 (ICR) from Charles River) at an age of 14-18 days by a single dose (intraperitoneally) of 10 I.U. of PMSG (Pregnant Mare Serum Gonadotropin; Sigma G-4877, Batch 68H0909). 47-50 hours after the injection, the ovaries are removed and the cumulus-oocyte complexes are removed. The cumulus complex is not yet expanded at this stage.
The cumulus-oocyte complexes are then incubated with prostaglandin E2 (PGE2) (1 μM), vehicle control (ethanol) or test substances for 20-24 hours. Medium: alpha-MEM medium with 0.1 mM IBMX, pyruvates (0.23 mM), glutamines (2 mM), pen/strep (100 IU/ml pen. and 100 μg/ml strep.) and HSA (8 mg/ml). Cumulus expansion is then established through the division into four stages (according to Vanderhyden et al. Dev Biol. 1990 August; 140(2):307-317).

[4] = cAMP assay in presence of PGE2, read-out: Antagonism [IC50
[5] = cAMP assay, no PGE2 added, read-out: Agonism [ED50

T1 sequence (P43116 whole entry): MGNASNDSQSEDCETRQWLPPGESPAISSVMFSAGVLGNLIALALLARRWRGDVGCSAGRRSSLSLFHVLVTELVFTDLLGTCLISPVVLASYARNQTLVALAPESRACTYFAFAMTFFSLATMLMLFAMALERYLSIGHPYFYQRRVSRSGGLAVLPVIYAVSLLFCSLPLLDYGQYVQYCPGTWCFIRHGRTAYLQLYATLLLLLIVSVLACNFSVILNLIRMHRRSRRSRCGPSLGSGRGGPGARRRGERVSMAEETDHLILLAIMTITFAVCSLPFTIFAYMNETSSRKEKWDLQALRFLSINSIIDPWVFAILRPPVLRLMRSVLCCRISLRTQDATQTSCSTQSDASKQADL

SMILES | IC50 [1, 4] | EC50 [2, 5] | IC50 ([1]; read-out: IC50 in the antagonism test) | EC50 ([2]; read-out: EC50 in the cellular agonism test) | suppression of cumulus expansion ([3]; at one tenth of the concentration (of 100-200 μM)) | suppression of cumulus expansion ([3]; at a concentration of 100-200 μM)
O=C(NC1CCN(c2nncc3cc(Br)ccc23)CC1)c1cccc(Cl)c1Cl [Example 2, N-[1-(6-Bromo-phthalazin-1-yl)-piperidin-4-yl]-2,3-dichloro-benzamide] |  | > 19000 nM | 200 nM | > 19000 nM | 35% | 
CC(C)Oc1ccc2c(=O)c3cc(C(=O)O)ccc3oc2c1 [AH 6809, reference compound] |  |  |  |  |  | about 20%
Cc1nnc(N2CCC(NC(=O)c3cccc(Cl)c3Cl)CC2)c2ccc(Br)cc12 [Example 4, N-[1-(6-Bromo-4-methyl-phthalazin-1-yl)-piperidin-4-yl]-2,3-dichloro-benzamide] | 500 nM | > 19000 nM |  |  |  | 

Now from value to molecule, other results behind:

IC50 [1, 4] | EC50 [2, 5] | IC50 ([1]; read-out: IC50 in the antagonism test) | EC50 ([2]; read-out: EC50 in the cellular agonism test) | SMILES | suppression of cumulus expansion ([3]; at one tenth of the concentration (of 100-200 μM)) | suppression of cumulus expansion ([3]; at a concentration of 100-200 μM)
300 nM | > 19000 nM |  |  | O=C(NC1CCN(c2nncc3ccc(Br)cc23)CC1)c1cccc(Cl)c1Cl [Example 1, N-[1-(7-Bromo-phthalazin-1-yl)-piperidin-4-yl]-2,3-dichloro-benzamide] |  | 
700 nM | > 19000 nM |  |  | Cc1nnc(N2CCC(NC(=O)c3cccc(Cl)c3Cl)CC2)c2cc(Br)ccc12 [Example 3, N-[1-(7-Bromo-4-methyl-phthalazin-1-yl)-piperidin-4-yl]-2,3-dichloro-benzamide] |  | 
